Results published in patent US20260285802A1, “MODULATORS OF SORTILIN ACTIVITY” (priority 2023, published 2026).

Target: T1, Human (6-His) Sortilin (Homo sapiens, UniProt Q99523)
T1 sequence (Q99523 78-831): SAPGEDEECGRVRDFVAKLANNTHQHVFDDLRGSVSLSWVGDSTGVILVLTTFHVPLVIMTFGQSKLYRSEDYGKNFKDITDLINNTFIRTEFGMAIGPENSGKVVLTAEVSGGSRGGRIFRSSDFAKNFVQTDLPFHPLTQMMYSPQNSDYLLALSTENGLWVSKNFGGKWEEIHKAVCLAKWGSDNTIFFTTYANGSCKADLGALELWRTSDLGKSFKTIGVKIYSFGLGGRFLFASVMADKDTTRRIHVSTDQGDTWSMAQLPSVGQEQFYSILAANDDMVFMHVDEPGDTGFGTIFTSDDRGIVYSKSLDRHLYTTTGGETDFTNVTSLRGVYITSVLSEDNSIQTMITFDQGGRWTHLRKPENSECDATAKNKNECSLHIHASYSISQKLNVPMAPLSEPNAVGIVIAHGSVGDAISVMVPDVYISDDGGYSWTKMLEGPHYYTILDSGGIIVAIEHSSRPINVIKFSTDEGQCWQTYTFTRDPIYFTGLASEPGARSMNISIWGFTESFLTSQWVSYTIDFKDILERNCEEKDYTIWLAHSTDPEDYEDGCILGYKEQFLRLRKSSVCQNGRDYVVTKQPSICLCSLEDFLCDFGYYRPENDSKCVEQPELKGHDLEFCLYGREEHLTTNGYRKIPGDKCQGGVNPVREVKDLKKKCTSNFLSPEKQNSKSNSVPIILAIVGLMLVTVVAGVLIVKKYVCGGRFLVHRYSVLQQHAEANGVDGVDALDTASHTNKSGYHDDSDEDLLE
Experiment: biochemical

Row | SMILES | Kd
1 | CC(C)(C)CCC(Nc1ccccc1)c1nnn[nH]1 (racemic) [Example 39, N-phenyl[4,4-dimethyl-1-(2H-tetraazol-5-yl)pentyl]amine] | 2840 nM
2 | CC(C)CC(Nc1cccnc1)c1nnn[nH]1 (racemic) [Example 63, [3-methyl-1-(2H-tetraazol-5-yl)butyl]-3-pyridylamine] | 47300 nM
3 | CC(C)CC(Nc1ccccc1)c1nnn[nH]1 (racemic) [Example 67, [3-methyl-1-(2H-tetraazol-5-yl)butyl]aniline] | 111000 nM
4 | COc1ccc2c(NC(CCC(C)(C)C)c3nnn[nH]3)ncnc2c1 (racemic) [Example 85, [4,4-dimethyl-1-(2H-tetraazol-5-yl)pentyl](7-methoxy-4-quinazolinyl)amine] | 91.3 nM
5 | CC(C)(C)CCC(Nc1ncnc2cc(C(F)(F)F)ccc12)c1nnn[nH]1 (racemic) [Example 87, [4,4-dimethyl-1-(2H-tetraazol-5-yl)pentyl][7-(trifluoromethyl)-4-quinazolinyl]amine] | 351 nM
6 | Cc1nc(NC(CCC(C)(C)C)c2nnn[nH]2)c2ccccc2n1 (racemic) [Example 89, [4,4-dimethyl-1-(2H-tetraazol-5-yl)pentyl](2-methyl-4-quinazolinyl)amine] | 85.7 nM
7 | Cc1nc(N[C@@H](CCC(C)(C)C)C(=O)O)c2ccccc2n1 [Example 118, (S)-5,5-Dimethyl-2-((2-methylquinazolin-4-yl)amino)hexanoic acid] | 18 nM
8 | CC(C)(C)CC[C@H](Nc1nc(C2CC2)nc2ccccc12)C(=O)O [Example 119, (S)-2-((2-Cyclopropylquinazolin-4-yl)amino)-5,5-dimethylhexanoic acid] | 14 nM
